Measured values reported in US11179452B2, “Antigen specific multi epitope vaccines” (priority 2006, dated 2021).
No end group written: not given here.

Experiments:
[1] = system: K562; experiment: In vitro cytotoxic assay (CTL) of ImMucin-stimulated HLA-A2.1 positive T-cell clone; type: cell-based; conditions: K562 Human Myalo Leukeima, MUC1 +, ratio 1:50
Description: (§1) Effector cells were ImMucin specific enriched T-Cell clone. Viable lymphocytes (effector cells), were centrifugation, resuspended in RPMI-HEPES medium, and admixed at different ratios with 5×10^3 35S methionine-labeled, tumor cells. CTL assays were performed in U-shaped microtiter wells, at 37° C., 5% CO2 for 5 hours. Cultures were terminated by centrifugation at 1000 rpm for 10 min at […]. A total of 100 µl of the supernatants was mixed with scintillation fluid and measured in a □□ counter (Becton Dickinson Canberra Australia). Percentage of specific lysis was calculated as follows: % lysis=(cpm in experimental well−cpm spontaneous release)/(cpm maximal release−cpm spontaneous release)×100. Spontaneous release was determined by incubation of 100 µl-labeled target cells with 100 µl of medium. Maximal release was determined by lysis of target cells in 100 µl 10% TrytonX-100.
(§2) In order to further evaluate the class II/class I cross presentation as well as the specificity and function of the T-cell clones, their class I restricted lysis potential was analyzed. For this assay the clones were screened for Class I HLA-A2.1 expression and their potential to lyse MUC1 and HLA-A2.1 positive and negative cell-lines was evaluated. […] The results summarized in Table 10 show a MUC1 as well as HLA-A2.1-restricted lysis. A breast tumor cell such as MDA-MB-231 which expresses both MUC1 and HLA-A2.1 was lysed effectively (23%), while another breast tumor cell line MDA-MB-468 which expresses only MUC1 but not the HLA-2.1 was not lysed al all. Other control cell-lines didn't manifest any lysis (see table 10).

[2] = system: HT-29; experiment: as above; type: cell-based; conditions: HT-29 Human Colon Carcinoma, MUC1 −, ratio 1:50
Description: as §1, §2

[3] = system: Molt-4; experiment: as above; type: cell-based; conditions: Molt-4 Human T cell Leukemia, MUC1 −, ratio 1:50
Description: as §1, §2

[4] = system: MDA-MB-486; experiment: as above; type: cell-based; conditions: MDA-MB-486 Human Brest Carcinoma, MUC1 ++, ratio 1:50
Description: as §1, §2

[5] = system: MDA-MB-231; experiment: as above; type: cell-based; conditions: MDA-MB-231 Human Brest Carcinoma, MUC1 +++, ratio 1:50
Description: as §1, §2

[6] = system: ImMucin specific enriched T-cell clone; experiment: ELISA of cytokine secretion during development of the ImMucin-specific T cell subpopulation by repeated stimulation (FIG. 1); type: cell-based, human
From the text: (§3) Thawed PBLs underwent 1st stimulation with ImMucin pulsed Autologues DC at a ratio of 20:1 and cultured for 7 days in dedicated T cell Medium. T cell medium contained RPMI medium supplemented with 10% FCS, L-Glutamine, Sodium Pyruvate, MEM-EAGLE non-essential amino-acids, HEPES and Gentamycin Sulphate (Bet-Haemek Industries, IL) as well as with 50 IU/ml of recombinant IL-7 (Cytolab IL). For the second stimulation, PBL were transferred to adherent autologues ImMucin-pulsed PBMC and cultured for additional 5 days in T cell Medium. At the end of the 5 days, medium was partial replaced with fresh medium containing 1 ug/ml of ImMucin and 50 IU/ml IL-2 for a third stimulation of 48 h at 37° C. Following the last stimulation ImMucin T cell line was checked for immune activation properties.
(§4) Cytokine release was studied during the culture of stimulated T-cells. The evaluated samples were collected from the T cell culture medium on day 2, 3, and 5 and stored until use at −20° C.
(§5) […] of the selected capture antibody (e.g. anti-Hu IFN-Gamma, or anti-Hu TNF-alfa or anti IL-2) were added to each well at the final concentration of 5 μg/ml in PBS. Plates were incubated for 2 h at R.T. or over night at 4° C. Next, […] of blocking solution were added for an incubation of 2 h at R.T. […] of evaluated samples were added in duplicate into 2 wells for 2 hours at RT. After 2 h of incubation at R.T plates were washed λ4 times in washing solution. In the next step, a Biotin-conjugated detection antibody (relevant to coated antibody) was added at a final concentration of 10 μg/ml in total volume of 100 μl for 1 h at R.T. Finally, 100 μl/well working dilution (1:10000 in Blocker solution) of Streptavidin-HRP were added to each well and incubated for 1 h at R.T.
(§6) Plates were washed λ6 times with PBS-Tween (0.4%) and 100 μl/well of TMB/E Solution (CHEMICON, Catalog #ES001) was added. The plates were then exposed until blue color appeared in the wells of the positive control and no color was detected in the blank wells. To stop the color reaction, 50 μl/well of 10% of Sulfuric acid was added. The plates were counted in ELISA-Reader using a 450 nm filter.
(§7) For producing the specific T cell subpopulation PBL were stimulated three times for 7, 5 and 2 days with ImMucin presented via DC and PBMC. Following the 3rd stimulation the cells were evaluated against the different VXL epitopes.

[7] = system: T-Cell specific subpopulation (Clones); experiment: ELISA of cytokine secretion by the T-cell specific subpopulation (clones) stimulated with peptides; type: cell-based, human; conditions: two experiments, four donors
From the text: as §3, §4, §5, §6
(§8) For that purpose, an enriched ImMucin-specific T cell subpopulation was produced via repeated stimulation with ImMucin. The specificity of the subpopulation for ImMucin, as well as to the other VXL epitopes, was examined using proliferation assays, cytokine release assays, FACS analysis in which the percentage and type of cells enriched during the enrichment process was analyzed, and using a CTL assay against selected target cells.
as §7

[8] = system: ImMucin specific T-cell subpopulation; experiment: Proliferation of the ImMucin-specific T-cell subpopulation after three stimulations; type: cell-based, human; conditions: one out of two experiments, four donors
From the text: as §3
Proliferation analysis was conducted in three different methods. In all three methods, plates were cultured for 3-5 days under visual control and then 0.5 […]Cu/well of 3[H] (Amersham) was added for additional culture of to 18 h at 37° C. In the last step, plates were harvested and the radioactive counts were measured in a □ counter. • 1. DC indirect presentation: In the first method, 100 µl of 2×10^6 thawed PBL were placed in U-shape Bottom 96 well plate (Nunc) with RPMI medium supplemented with 5% H AB serum, L-Glutamine, Sodium Pyruvate, MEM-EAGLE non-essential amino-acids, HEPES and Gentamycin. At the next stage 100 µl of 25×10^4 peptide-pulsed DC were added to each three wells of PBL and underwent proliferation analysis as described above. • 2. PBL direct presentation: In the 2nd method, 100 µl of 2×10^6 PBL were placed in Flat Bottom 96 well plates (Corning) and stimulated with different concentrations (0.05 ug/ml-2 ug/ml) of peptides. In the next step the cells underwent proliferation analysis as described above. • 3. PBMC direct presentation: In third method PNMC were used under similar conditions as described for the second method.
as §8, §7

[9] = after the second and third stimulations with ImMucin

With MTPGTQSPFFLLLLLTVLTVV [ImMucin] the “Lysis % (1:50)” value [1] was 1.7%, the “Lysis % (1:50)” value [2] was 0% and the “Lysis % (1:50)” value [3] was 1.1%. The “Lysis % (1:50)” value [4] was 0%, the “Lysis % (1:50)” value [5] was 23% and the TNF-Alfa secretion ([6]; after the 3rd stimulation on day 14) was “completely disappeared”. For the same sequence, the “IL-2 secretion from CD4+ T cells” value [6, 9] was “increased dramatically”, the “INF-gamma secretion mainly from CD8+ T cells” value [6, 9] was “increased dramatically” and the “TNF-Alfa secretion, peak” value ([6]; during the first stimulation with ImMucin (FIG. 1)) was 5 ng/mL. The TNF-Alfa secretion ([6]; following a second stimulation with ImMucin) was “decreased”, the “IL-2 % of clones” value [7] was 83% and the “INF-gamma % of clones” value [7] was 90%. The “TNF-Alfa % of clones” value [7] was 90%, the “TNF-Alfa Range” value [7] was 2.7 to 8.9 ng/mL and the “IS (Average)” value [8] was 3.2. The “IS (Range)” value [8] was 2.2-4.2.
